Data published in ChEMBL document CHEMBL1201862, “PubChem BioAssay data set” (2004).
“And” between values parts separate entries of the source, which are not always exact repeats. Equal entries are not always repeated.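 Exposure lasted 48 hours, with cells grown in 96-well plates and compounds tested at five concentrations. The concentration for 50% growth inhibition is given as GI50.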 The source made the active and inactive calls. Cut-off read from the data, not from the text of the source: active = GI50 up to about 1.1 µM and inactive = higher.

Experiments:
Experiment in all cases: NCI anticancer screen, dose series, 48 h
786-0 = test system: 786-0
A549 = test system: A549
CAKI-1 = test system: CAKI-1
CCRF-CEM = test system: CCRF-CEM
COLO 205 = test system: COLO 205
DLD-1 = test system: DLD-1
DMS-273 = test system: DMS-273
EKVX = test system: EKVX
HCT-116 = test system: HCT-116
HCT-15 = test system: HCT-15
HL-60 = test system: HL-60
HOP-18 = test system: HOP-18
HOP-62 = test system: HOP-62
HOP-92 = test system: HOP-92
HT-29 = test system: HT-29
IGROV-1 = test system: IGROV-1
K562 = test system: K562
KM-20L2 = test system: KM-20L2
LOX IMVI = test system: LOX IMVI
LXFL 529 = test system: LXFL 529
M14 = test system: M14
M19-MEL = test system: M19-MEL
MOLT-4 = test system: MOLT-4
NCI-H23 = test system: NCI-H23
NCI-H460 = test system: NCI-H460
NCI-H522 = test system: NCI-H522
OVCAR-8 = test system: OVCAR-8
RPMI-8226 = test system: RPMI-8226
RXF 393 = test system: RXF 393
SF-295 = test system: SF-295
SF-539 = test system: SF-539
SK-MEL-5 = test system: SK-MEL-5
SK-OV-3 = test system: SK-OV-3
SN12C = test system: SN12C
SW-620 = test system: SW-620
TK-10 = test system: TK-10
U-251 = test system: U-251
UACC-62 = test system: UACC-62
UO-31 = test system: UO-31
XF498 = test system: XF498
DU-145 = test system: DU-145
HCC 2998 = test system: HCC 2998
Hs-578T = test system: Hs-578T
KM12 = test system: KM12
MCF7 = test system: MCF7
MDA-MB-231 = test system: MDA-MB-231
MDA-MB-435 = test system: MDA-MB-435
MDA-N = test system: MDA-N
NCI/ADR-RES = test system: NCI/ADR-RES
OVCAR-3 = test system: OVCAR-3
OVCAR-5 = test system: OVCAR-5
SF-268 = test system: SF-268
SK-MEL-2 = test system: SK-MEL-2
SR = test system: SR
T47D = test system: T47D

For Cc1nc2ccccc2c(=O)n1/N=C(\N=N\c1cccc(Cl)c1)c1ccccc1Cl, the GI50 (786-0) was 83 µM (inactive), the GI50 (A549) was > 100 µM (inactive) and the GI50 (CAKI-1) was > 100 µM (inactive). For the same compound, the GI50 (CCRF-CEM) was > 10 µM (inactive), the GI50 (COLO 205) was > 10 µM (inactive) and the GI50 (DLD-1) was 75.5 µM (inactive). The GI50 (DMS-273) was 50.2 µM (inactive), the GI50 (EKVX) was 69.8 µM (inactive) and the GI50 (HCT-116) was 36 µM (inactive). The GI50 (HCT-15) was greater than 100 µM, the GI50 (HL-60) was > 10 µM (inactive) and the GI50 (HOP-18) was 1.48 µM (inactive). For the same compound, the GI50 (HOP-62) was 37.8 µM (inactive), the GI50 (HOP-92) was 29.9 µM (inactive) and the GI50 (HT-29) was > 100 µM (inactive). The GI50 (IGROV-1) was > 10 µM (inactive), the GI50 (K562) was 0.57 µM (active) and the GI50 (KM-20L2) was > 100 µM (inactive). For the same compound, the GI50 (LOX IMVI) was > 100 µM (inactive), the GI50 (LXFL 529) was > 10 µM (inactive) and the GI50 (M14) was > 100 µM (inactive). For the same compound, the GI50 (M19-MEL) was > 100 µM (inactive), the GI50 (MOLT-4) was > 10 µM (inactive) and the GI50 (NCI-H23) was 64.9 µM (inactive). For the same compound, the GI50 (NCI-H460) was 49.9 µM (inactive), the GI50 (NCI-H522) was 29 µM (inactive) and the GI50 (OVCAR-8) was > 100 µM (inactive). The GI50 (RPMI-8226) was > 100 µM (inactive), the GI50 (RXF 393) was 21.7 µM (inactive) and the GI50 (SF-295) was 30.4 µM (inactive). The GI50 (SF-539) was 25.3 µM (inactive), the GI50 (SK-MEL-5) was > 100 µM (inactive) and the GI50 (SK-OV-3) was 25.8 µM (inactive). The GI50 (SN12C) was > 100 µM (inactive), the GI50 (SW-620) was > 100 µM (inactive) and the GI50 (TK-10) was 49.4 µM (inactive). For the same compound, the GI50 (U-251) was 37.9 µM (inactive), the GI50 (UACC-62) was > 100 µM (inactive) and the GI50 (UO-31) was 99.3 µM (inactive). The GI50 (XF498) was 2.29 µM (inactive).
For CSc1nc(C)c(Br)c(=O)n1C1OC(COC(C)=O)C(OC(C)=O)C(OC(C)=O)C1OC(C)=O (stereo not drawn), the GI50 (CCRF-CEM) was > 100 µM (inactive), the GI50 (COLO 205) was > 100 µM (inactive) and the GI50 (DLD-1) was > 100 µM (inactive). The GI50 (DMS-273) was 27.7 µM (inactive), the GI50 (DU-145) was > 100 µM (inactive) and the GI50 (HCC 2998) was > 100 µM (inactive). The GI50 (HCT-15) was greater than 100 µM, the GI50 (HL-60) was > 100 µM (inactive) and the GI50 (HOP-18) was 60.4 µM (inactive). For the same compound, the GI50 (HOP-62) was 26.8 µM (inactive) and 22 µM (inactive), the GI50 (HOP-92) was 20.1 µM (inactive) and 13.6 µM (inactive) and the GI50 (HT-29) was > 100 µM (inactive). For the same compound, the GI50 (Hs-578T) was 42.9 µM (inactive), the GI50 (K562) was > 100 µM (inactive) and the GI50 (KM-20L2) was > 100 µM (inactive). For the same compound, the GI50 (KM12) was > 100 µM (inactive), the GI50 (LOX IMVI) was > 100 µM (inactive) and the GI50 (M14) was > 100 µM (inactive). The GI50 (MCF7) was > 100 µM (inactive), the GI50 (MDA-MB-231) was 63.8 µM (inactive) and the GI50 (MDA-MB-435) was > 100 µM (inactive). For the same compound, the GI50 (MDA-N) was > 100 µM (inactive), the GI50 (MOLT-4) was > 100 µM (inactive) and the GI50 (NCI-H460) was > 100 µM (inactive) and 97.1 µM (inactive). For the same compound, the GI50 (NCI/ADR-RES) was > 100 µM (inactive), the GI50 (OVCAR-3) was > 100 µM (inactive) and the GI50 (OVCAR-5) was > 100 µM (inactive) and 94.2 µM (inactive). The GI50 (RPMI-8226) was > 100 µM (inactive), the GI50 (RXF 393) was 20.5 µM (inactive) and 19.9 µM (inactive) and the GI50 (SF-268) was 34.1 µM (inactive) and 19.6 µM (inactive). For the same compound, the GI50 (SF-295) was 24.2 µM (inactive) and 26.9 µM (inactive), the GI50 (SK-MEL-2) was 56.5 µM (inactive) and the GI50 (SN12C) was > 100 µM (inactive). For the same compound, the GI50 (SR) was > 100 µM (inactive), the GI50 (SW-620) was > 100 µM (inactive) and the GI50 (T47D) was > 100 µM (inactive). The GI50 (U-251) was 39.1 µM (inactive) and 22.4 µM (inactive) and the GI50 (XF498) was 21.2 µM (inactive).
